The record followed here is patent US9446130B2, “BTK inhibitors” (MERCK SHARP & DOHME CORP., priority 2013, dated 2016).

Usually IC50 stands for the midpoint of a concentration-inhibition curve.

The test has as its target BTK enzyme (hBTK, full-length recombinant) (Homo sapiens (Human), UniProt Q06187). Nature of the test: Btk enzyme activity assay, Method A: IMAP-FP. It is filed as biochemical. The note with it: 5 μM ATP, 60 minute compound & enzyme incubation. The source says:
Inhibition of kinase activity can be measured using the Immobilized Metal Assay for Phosphochemicals (IMAP) assay. IMAP is a homogeneous fluorescence polarization (FP) assay based on affinity capture of phosphorylated peptide substrates. IMAP uses fluorescein-labeled peptide substrates that, upon phosphorylation by a protein kinase, bind to so-called IMAP nanoparticles, which are derivatized with trivalent metal complexes. Binding causes a change in the rate of the molecular motion of the peptide, and results in an increase in the FP value observed for the fluorescein label attached to the substrate peptide (Gaudet et al. A homogeneous fluorescence polarization assay adaptable for a range of protein serine/threonine and tyrosine kinases. J. Biomol. Screen (2003) 8, 164-175).
BTK enzymatic activity was determined in an IMAP-FP assay (Immobilized Metal ion Affinity-based fluorescence Polarization; Molecular Devices). […] Plates were read on Packard microplate reader after 60 minutes binding equilibration using Fluorescence Polarization protocol. Specifically, fluorescence at 535 nm is measured using emission filters oriented both parallel and perpendicular to the polarized excitation filter. This allows detection of changes in Fluorescence Polarization due to binding of the phosphorylated substrate peptide to the beads. […]

BTK enzyme (hBTK, full-length recombinant), sequence (Q06187 whole entry): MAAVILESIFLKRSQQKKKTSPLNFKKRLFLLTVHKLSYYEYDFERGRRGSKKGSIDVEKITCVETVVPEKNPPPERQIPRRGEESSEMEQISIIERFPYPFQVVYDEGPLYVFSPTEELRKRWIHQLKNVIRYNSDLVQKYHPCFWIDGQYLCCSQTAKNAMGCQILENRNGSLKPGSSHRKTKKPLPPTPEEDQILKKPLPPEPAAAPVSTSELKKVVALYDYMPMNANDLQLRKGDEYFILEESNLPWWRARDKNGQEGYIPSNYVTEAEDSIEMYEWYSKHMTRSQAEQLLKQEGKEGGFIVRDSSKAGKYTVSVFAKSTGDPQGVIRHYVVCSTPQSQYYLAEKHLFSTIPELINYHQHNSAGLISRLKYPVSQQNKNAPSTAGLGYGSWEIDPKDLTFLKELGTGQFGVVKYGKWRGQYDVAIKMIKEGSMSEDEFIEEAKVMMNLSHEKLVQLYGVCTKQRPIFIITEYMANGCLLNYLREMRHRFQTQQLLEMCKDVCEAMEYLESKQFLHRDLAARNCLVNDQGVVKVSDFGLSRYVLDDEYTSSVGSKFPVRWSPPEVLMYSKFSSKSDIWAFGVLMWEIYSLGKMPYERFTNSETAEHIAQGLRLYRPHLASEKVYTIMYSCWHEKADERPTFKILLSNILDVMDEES

Take `Cn1ncc2c1CCCC2(O)c1nc(-c2ccc(C(=O)Nc3cc(C(F)(F)F)ccn3)cc2)c2c(N)nccn12` (centres unmarked) [Example 1, 4-(8-amino-3-(4-hydroxy-1-methyl-4,5,6,7-tetrahydro-1H-indazol-4-yl)imidazo[1,5-a]pyrazin-1-yl)-N-(4-(trifluoromethyl)pyridin-2-yl)benzamide]: the concentration for half-maximal inhibition (IC50) was determined as 7.2 nM.

Take `CCn1ncc2c1CCCC2(O)c1nc(-c2ccc(C(=O)Nc3cc(C(F)(F)F)ccn3)cc2)c2c(N)nccn12` (centres unmarked) [Example 4, 4-(8-amino-3-(1-ethyl-4-hydroxy-4,5,6,7-tetrahydro-1H-indazol-4-yl)imidazo[1,5-a]pyrazin-1-yl)-N-(4-(trifluoromethyl)pyridin-2-yl)benzamide]: the IC50 was found to be 12 nM.
